Consider 1 compound from patent US9801901B2, “Alginate oligomers for use in overcoming multidrug resistance in bacteria” (priority 2009, dated 2017).

For orientation: MIC means the least concentration at which growth counts as inhibited. Low values mean a more susceptible organism, high ones a less susceptible organism.

The test concerns V23 1322 Burkholderia cepacia. In words: MIC assay, CAMHB with alginate oligomer, no visible growth. Type of test: cell-based. To be noted: Table 5, V23 MDR Burk cep.

The structures appear in SMILES notation. Values after ≈ are worked out from the molar mass of the structure shown. Marks after values point to notes of the source that are not given here.

As to `CC1(C)C[C@@H]1C(=O)N/C(=C\CCCCSC[C@H](N)C(=O)O)C(=O)O` [Primaxin, Imipenem/cilastatin], 32 µg/mL (≈ 89.3 µM) was the least that counted as inhibitory (Burkholderia cepacia, OligoCF-5/20 0G) (MIC); the MIC (OligoCF-5/20 +2% G) is 32 µg/mL (≈ 89.3 µM); the minimum inhibitory concentration (MIC) (OligoCF-5/20 +6% G) turned out to be 32 µg/mL (≈ 89.3 µM); the minimum inhibitory concentration (MIC) (OligoCF-5/20 +10% G) is 8^† μg/ml.
